The text below walks through data of US11584763B2, “Chromenopyridine derivatives as phosphatidylinositol phosphate kinase inhibitors” (HIBERCELL, INC., priority 2017, dated 2023).

Common to all, as to assay type: biochemical
Experiment [1] addresses T1, PIP4K 2A (Homo sapiens, UniProt P48426).
T1 sequence (P48426 1-406): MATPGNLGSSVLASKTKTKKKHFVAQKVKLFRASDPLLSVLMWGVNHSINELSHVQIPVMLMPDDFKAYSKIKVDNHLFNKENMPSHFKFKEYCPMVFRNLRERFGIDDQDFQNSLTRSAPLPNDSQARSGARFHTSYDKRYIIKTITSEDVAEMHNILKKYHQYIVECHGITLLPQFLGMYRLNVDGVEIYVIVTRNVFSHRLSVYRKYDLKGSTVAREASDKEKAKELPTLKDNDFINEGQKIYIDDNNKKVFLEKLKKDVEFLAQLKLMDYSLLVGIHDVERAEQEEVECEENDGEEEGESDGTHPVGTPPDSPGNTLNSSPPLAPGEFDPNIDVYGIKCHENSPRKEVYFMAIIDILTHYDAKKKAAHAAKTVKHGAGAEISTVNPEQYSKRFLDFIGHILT
Briefly: ADP-glo kinase assay PIP4K 2A. The arrangement: 4 nM PIP4K2A (full length protein, SignalChem); purchased SignalChem. The conditions noted are these: compounds listed under IC50 bin headings. In a few lines:
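Inhibition was calculated versus DMSO controls from ADP-Glo luminescence and fitted to IC50 over a 10-point, threefold series. Compound was first pre-incubated 15 min at room temperature with PIP4K2A (full-length; 4 nM in the enzyme/substrate mix) and PI(5)P diC8 (100 μM in that mix). The reaction then ran for 1 h after adding 60 μM ATP solution, in MOPS pH 7.2/MgCl2/Tween buffer.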
In general terms: In ADP-Glo the light output rises with the ADP produced.

For experiment [2], the target named is T1, PIP4K 2A. Description: Kinase Assay PIP4K2 A (PIP4KtypeIIA inhibition assay). The arrangement: made in house; host or cells: E. coli. The note with it: compounds listed under IC50 bin headings. From the text:
GST tagged PIP4KtypeIIA and B enzymes were overexpressed in E. Coli and purified to >80% homogeneity. Phosphatidyl inositol-5-phosphate (PI5P, Cat. #850152, Avanti Polar Lipids Inc.) was used as the lipid substrate and phosphatidyl ethanolamine (DOPE 18:1, Cat. #850725, Avanti Polar Lipids Inc.) was used as the carrier lipid for assays. Ultrapure ATP and GTP was purchased from Bellbrooke Labs. ADP Glo reagents were obtained from Promega. Transcreener FI reagent was obtained from Bellbrooke labs.
Enzyme preparation: GST-tagged PIP4KtypeIIA (5 uL, 1.43 mg/mL) was diluted (1:10) to 50 uL using HNE buffer. From the 1:10 diluted stock, a 6.4 uL aliquot was diluted further to 5 mL using HNE buffer to yield 5× enzyme stock (2.5 nM).
Lipid Preparation: In a 10 mL pyrex glass vial, 1 ug of PI5P and 1 ug of DOPE were suspended in 2.5 mL of HEPES buffer mix and 2.5 mL of H:E buffer. The contents were mixed and sonicated for 3 min to yield a translucent lipid stock.
Compound Preparation: Compounds were stored as 5 mM stocks in neat DMSO as room temperature in glass vials. 5 mM stocks were diluted to 2 mM and then serially diluted (3×) in neat DMSO in 96 well polypropylene plates. From the serially diluted stocks, 3 uL was delivered into 250 uL of 25% DMSO (in water) to generate 5× compound stocks. Typically, the highest compound conc. was 24 uM.
The assay volume was kept at 25 uL. To each well of the reaction plate, 10 uL of lipid stock (1:1 ratio PI5P:DOPE) was delivered. This was followed by the addition of 5 uL of compound in 25% DMSO. Then, to each well, 5 uL of 2.5 nM (5×) typeIIA enzyme was delivered. The contents were mixed well and incubated for 1 h at 27 C. After 1 h, reaction was initiated by adding 5 uL of 50 uM ATP and the contents were mixed well with a multi-channel pipetteman. The final concentration of the reagents are as follows: 50 mM HEPES, pH 7.3, 10 mM MgCl2, 20 mM NaCl, 0.01% v/v triton-X100, 5% DMSO, 10 uM ATP, 80 uM (2 ug) PI5P, 2 ug DOPE, and 0.5 nM PIP4KIIA. Typically, the highest conc. of compounds was 4.8 uM and the lowest conc. was 0.
After 1 hr, the reaction was quenched by adding 25 uL of ADP Glo reagent. The contents were incubated for 1 hr. Afterwards, 50 uL of kinase detection reagent was delivered. The contents were incubated for another hour. The luminescence was read using Molecular Devices Paradigm plate reader. […] The blanks were averaged and subtracted from all other wells. Using a calibration curve, RLU was converted to uM ADP (product). IC50 was calculated by plotting the residual activity (expressed as % No inhibitor control) vs. log [Inh. conc.]

The next experiment concerns the target T2, PIP4K2B (Homo sapiens, UniProt P78356).
T2 construct: made in house; host or cells: E. coli
T2 sequence (P78356 1-416): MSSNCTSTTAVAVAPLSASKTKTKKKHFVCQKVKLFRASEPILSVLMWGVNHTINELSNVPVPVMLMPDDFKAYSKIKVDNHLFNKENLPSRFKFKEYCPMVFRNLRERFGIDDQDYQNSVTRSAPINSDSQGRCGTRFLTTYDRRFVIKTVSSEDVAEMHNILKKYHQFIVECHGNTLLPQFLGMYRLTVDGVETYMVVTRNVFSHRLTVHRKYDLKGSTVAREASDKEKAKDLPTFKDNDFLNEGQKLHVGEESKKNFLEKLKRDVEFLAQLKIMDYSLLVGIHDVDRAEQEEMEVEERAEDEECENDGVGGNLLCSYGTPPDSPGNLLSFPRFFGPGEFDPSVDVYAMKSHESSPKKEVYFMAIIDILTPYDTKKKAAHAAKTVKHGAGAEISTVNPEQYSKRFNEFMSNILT
Briefly: Trans-FI P kinase assay PIP4K2B (PIP4KtypeIIB inhibition assay). The conditions noted are these: compounds listed under IC50 bin headings; 100 uM GTP; read-out: Trans-FI P kinase assays: PIP4K2B IC50. The method, boiled down:
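Transcreener FI fluorescence read-out of GDP formed by E. coli-expressed GST-PIP4K2B (5 nM) using 100 uM GTP and 80 uM PI5P with DOPE carrier lipid, pH 7.3, 2 h reaction. Compounds (up to 4.8 uM) were preincubated with enzyme 1 h at 27 C; IC50 fitted from residual activity relative to no-inhibitor control.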

For orientation: IC50 means the concentration at which inhibition is half-maximal.

Bounds are passed on as bounds.

For the molecule `CC(=O)Nc1cncc(Nc2cc3c(cn2)-c2ccc(N4CCCC4=O)cc2OC3C)c1` (stereo not drawn) [Example 100, N-(5-((5-methyl-8-(2-oxopyrrolidin-1-yl)-5H-chromeno[4,3-c]pyridin-3-yl)amino)pyridin-3-yl)acetamide], the IC50 was 0.01 to 0.1 µM against PIP4K 2A [1], not above 0.001 µM against PIP4K 2A [2] and 0.01 to 0.1 µM at PIP4K2B.
On to `COCCC(=O)N1CCN(c2cncc(Nc3cc4c(cn3)-c3cc(F)c(N5CCCC5=O)cc3OC4(C)C)c2)CC1` [Example 173, 1-(9-fluoro-3-((5-(4-(3-methoxypropanoyl)piperazin-1-yl)pyridin-3-yl)amino)-5,5-dimethyl-5H-chromeno[4,3-c]pyridin-8-yl)pyrrolidin-2-one], for which the figures for the IC50 at PIP4K 2A [1], against PIP4K 2A [2] and on PIP4K2B were 0.001 to 0.01 µM, 0.001 to 0.01 µM and 0.01 to 0.1 µM, respectively.
Take `CC1Oc2cc(N3CCCC3=O)ccc2-c2cnc(Nc3cnc4scnc4c3)cc21` (stereo not drawn) [Example 65, 1-(5-methyl-3-(thiazolo[5,4-b]pyridin-6-ylamino)-5H-chromeno[4,3-c]pyridin-8-yl)pyrrolidin-2-one]: the IC50 was in the range of 0.01 to 0.1 µM at PIP4K 2A [1], 0.001 to 0.01 µM on PIP4K 2A [2] and 0.1 to 1 µM at PIP4K2B.
The corresponding values for `O=C1CCCN1c1ccc2c(c1)OCc1c(-c3ccncc3)cncc1-2` [Example 202, 1-(4-(pyridin-4-yl)-5H-chromeno[4,3-c]pyridin-8-yl)pyrrolidin-2-one] are more than 1 µM, 0.1 to 1 µM and more than 1 µM.
The corresponding values for `CC1(C)Oc2cc(N3CCCC3=O)ccc2-c2cnc(Nc3cnc4c(c3)N3C(=O)CC[C@H]3CO4)cc21` [Example 73, (S)-2-((5,5-dimethyl-8-(2-oxopyrrolidin-1-yl)-5H-chromeno[4,3-c]pyridin-3-yl)amino)-6,6a,7,8-tetrahydro-9H-pyrido[2,3-b]pyrrolo[1,2-d][1,4]oxazin-9-one] are not above 0.001 µM, not above 0.001 µM and 0.001 to 0.01 µM.
The corresponding values for `CC1Oc2cc(N3CCCC3=O)ccc2-c2cnc(Nc3cnc4c(c3)N(S(=O)(=O)C(C)C)CCO4)cc21` (stereo not drawn) [Example 85, 1-(3-((1-(isopropylsulfonyl)-2,3-dihydro-1H-pyrido[2,3-b][1,4]oxazin-7-yl)amino)-5-methyl-5H-chromeno[4,3-c]pyridin-8-yl)pyrrolidin-2-one] are 0.001 to 0.01 µM, not above 0.001 µM and 0.01 to 0.1 µM.
Turning to `CN(C)C(=O)c1ccc2c(c1)OC(C1CC1)c1cc(Nc3cncc(N4CCCC4=O)c3)ncc1-2` (stereo not drawn) [Example 35, 5-cyclopropyl-N,N-dimethyl-3-((5-(2-oxopyrrolidin-1-yl)pyridin-3-yl)amino)-5H-chromeno[4,3-c]pyridine-8-carboxamide], the IC50 against PIP4K 2A [1] is 0.001 to 0.01 µM; at PIP4K 2A [2], not above 0.001 µM; on PIP4K2B, 0.001 to 0.01 µM.
In the case of `CC1(C)Oc2cc(N3CCCC3=O)c(F)cc2-c2cnc(Nc3cnc4c(c3)N3C(=O)CC[C@H]3CO4)cc21` [Example 148, (S)-2-((9-fluoro-5,5-dimethyl-8-(2-oxopyrrolidin-1-yl)-5H-chromeno[4,3-c]pyridin-3-yl)amino)-6,6a,7,8-tetrahydro-9H-pyrido[2,3-b]pyrrolo[1,2-d][1,4]oxazin-9-one], the IC50 was not above 0.001 µM against PIP4K 2A [1], not above 0.001 µM against PIP4K 2A [2] and 0.001 to 0.01 µM at PIP4K2B.
On to `CC(=O)N1CCOc2ncc(Nc3cc4c(cn3)-c3ccc(N5CCCC5=O)cc3OC4C)cc21` (stereo not drawn) [Example 42, 1-(3-((1-acetyl-2,3-dihydro-1H-pyrido[2,3-b][1,4]oxazin-7-yl)amino)-5-methyl-5H-chromeno[4,3-c]pyridin-8-yl)pyrrolidin-2-one], for which the IC50 at PIP4K 2A [1] was 0.001 to 0.01 µM; at PIP4K 2A [2], not above 0.001 µM; on PIP4K2B, 0.01 to 0.1 µM.
The corresponding values for `CC1Oc2cc(N3CCCC3=O)ccc2-c2cnc(Nc3cncc(NC(=O)NCc4ccccc4)c3)cc21` (stereo not drawn) [Example 103, 1-benzyl-3-(5-((5-methyl-8-(2-oxopyrrolidin-1-yl)-5H-chromeno[4,3-c]pyridin-3-yl)amino)pyridin-3-yl)urea] are 0.001 to 0.01 µM, not above 0.001 µM and 0.01 to 0.1 µM.
The corresponding values for `CC(=O)N1CCOc2ncc(Nc3cc4c(cn3)-c3ccc(C(=O)N(C)C)cc3OC4C)cc21` (stereo not drawn) [Example 70, 3-((1-acetyl-2,3-dihydro-1H-pyrido[2,3-b][1,4]oxazin-7-yl)amino)-N,N,5-trimethyl-5H-chromeno[4,3-c]pyridine-8-carboxamide] are not above 0.001 µM, not above 0.001 µM and 0.001 to 0.01 µM.
The corresponding values for `CC1c2cc(Nc3cccnc3)ncc2-c2ccc(C(=O)N(C)C)cc2N1C` (stereo not drawn) [Example 37, N,N,5,6-tetramethyl-3-(pyridin-3-ylamino)-5,6-dihydrobenzo[c][2,6]naphthyridine-8-carboxamide] are 0.01 to 0.1 µM, 0.001 to 0.01 µM and 0.1 to 1 µM.
On to `COC(=O)N1CCOc2ncc(Nc3cc4c(cn3)-c3ccc(N5CCCC5=O)cc3OC4)cc21` [Example 77, methyl 7-((8-(2-oxopyrrolidin-1-yl)-5H-chromeno[4,3-c]pyridin-3-yl)amino)-2,3-dihydro-1H-pyrido[2,3-b][1,4]oxazine-1-carboxylate], for which the IC50 on PIP4K 2A [1] is not above 0.001 µM; against PIP4K 2A [2] it was not above 0.001 µM; on PIP4K2B, 0.001 to 0.01 µM.
For the molecule `CC1Oc2cc(N3CCCC3=O)ccc2-c2cnc(Nc3cncc(N4CCN(C)C4=O)c3)cc21` (stereo not drawn) [Example 53, 1-methyl-3-(5-((5-methyl-8-(2-oxopyrrolidin-1-yl)-5H-chromeno[4,3-c]pyridin-3-yl)amino)pyridin-3-yl)imidazolidin-2-one], the results for the IC50 at PIP4K 2A [1], against PIP4K 2A [2] and at PIP4K2B were 0.001 to 0.01 µM, not above 0.001 µM and 0.01 to 0.1 µM, respectively.
